# Laboratory results: patent publication US6849728B1, “GLUT10: a glucose transporter in the type 2 diabetes linked region of chromosome 20Q12-13.1” (Wake Forest University Health Sciences, priority 2000, dated 2005)
# Where a chain is given by its changes, count along the chain named. “Also recorded” adds a separate entry of the source.
# B1: human GLUT10 (Homo sapiens) (protein)
# chain: MGHSPPVLPLCASVSLLGGLTFGYELAVISGALLPLQLDFGLSCLEQEFLVGSLLLGALLASLVGGFLIDCYGRKQAILGSNLVLLAGSLTLGLAGSLAWLVLGRAVVGFAISLSSMACCIYVSELVGPRQRGVLVSLYEAGITVGILLSYALNYALAGTPWGWRHMFGWATAPAVLQSLSLLFLPAGTDETATHKDLIPLQGGEAPKLGPGRPRYSFLDLFRARDNMRGRTTVGLGLVLFQQLTGQPNVLCYASTIFSSVGFHGGSSAVLASVGLGAVKVAATLTAMGLVDRAGRRALLLAGCALMALSVSGIGLVSFAVPMDSGPSCLAVPNATGQTGLPGDSGLLQDSSLPPIPRTNEDQREPILSTAKKTKPHPRSGDPSAPPRLALSSALPGPPLPARGHALLRWTALLCLMVFVSAFSFGFGPVTWLVLSEIYPVEIRGRAFAFCNSFNWAANLFISLSFLDLIGTIGLSWTFLLYGLTAVLGLGFIYLFVPETKGQSLAEIDQQFQKRRFTLSFGHRQNSTGIPYSRIEISAAS
# How the values were obtained:
# human GLUT10 = biological target: T1, human GLUT10 (Homo sapiens, UniProt O95528); assay: 2-DOG uptake in Xenopus oocytes injected with GLUT10 RNA; assay type: cell-based; conditions: for effect of competitors on [3H]2-DOG uptake: 100-fold excess: 25 mM competitor
# T1 construct: A full-length GLUT10 cDNA was cloned into the expression vector pCMV-Tag4a (Stratagene); expressed in transfected cells; host or cells: Xenopus laevis oocytes injected with capped mRNA
# T1 sequence (O95528 1-541): B1 chain
# Excerpt: (§1) Material and Methods. A full-length GLUT10 cDNA was cloned into the expression vector pCMV-Tag4a (Stratagene). A PCR-based strategy employing Pfu polymerase was used for site-directed mutagenesis to generate the GLUT10 single nucleotide polymorpisms. The PCR products were digested with Eco RI, subcloned into pCMV-Tag4a, and the complete insert was sequenced to confirm the identity of the A206T and A287T GLUT10 glucose transporter cDNAs. The pcDNA3.1/GS plasmids expressing the full-length GLUT3 and GLUT4 cDNA were purchased from Invitrogen Corporation. Capped mRNA was generated using the mMESSAGE mMACHINE™ transcription kit (Ambion Inc).
# Adult female Xenopus laevis were obtained from Xenopus Express (Homosassa, Fla.) and housed at 17-19° C. on a twelve-hour light/dark cycle. Stage V-VI oocytes were removed from anesthetized frogs and placed in isolation media (108 mM NaCl, 1 mM EDTA, 2 mM KCl, 10 mM HEPES, pH 7.5). The oocyte follicular layer was removed by immersion in 0.5 mg/ml collagenase buffer (83 mM NaCl, 2 mM KCl, 1 mM MgCl2, and 5 mM HEPES, pH 7.5). Isolated oocytes were maintained in modified Barth's saline (MBS; 88 mM NaCl, 1 mM KCl, 10 mM HEPES, 0.82 mM MgSO4, 2.4 mM NaHCO3, 0.91 mM CaCl2, and 0.33 mM Ca(NO3)2, pH 7.5). Visually healthy oocytes were injected with 30 nl of either a mRNA solution (1.0 μg/μl) or sterile water at the interface between the animal and vegetal poles. Individual oocytes were placed in 96-well microtiter plates (Costar Corporation) containing MBS plus 2 mM sodium pyruvate, 0.5 mM theophylline, 10 U/ml penicillin, 10 mg/l streptomycin and 50 mg/] gentamycin (Sigma) at 22° C.
# (§2) DOG (final specific activity=0.5 Ci/mmol) (NEN Life Science Products, Inc.; American Radiochemical Company). Competitors, inhibitors, or insulin were added to the incubation as indicated. Uptake was terminated by removal of the radioactive solution and three 500 μl washes with ice-cold MBS containing 0.1 mM phloretin (Sigma). Pools of oocytes were dissolved in 10% SDS, mixed with scintillation fluid, and internalized radioactivity was measured by scintillation spectrometry using a Beckman LS-600 scintillation counter. Data are expressed as the arithmetic mean or median of duplicate or triplicate pools of 4 to 12 oocytes at each data point. Transport kinetics were analyzed by best-fit analysis of data points (Cricket Graph, Computer Associates) and Eadie-Hofstee transformation.
# human GLUT4 = biological target: T2, human GLUT4 (Homo sapiens, UniProt P14672); assay: 2-DOG uptake in Xenopus oocytes injected with GLUT4 RNA; assay type: cell-based; conditions: pre-incubation with 100 μM insulin for 30 min, 250 μM [3H]2-DOG
# T2 construct: The pcDNA3.1/GS plasmids expressing the full-length GLUT3 and GLUT4 cDNA were purchased from Invitrogen Corporation; host or cells: Xenopus laevis oocytes injected with capped mRNA
# T2 sequence (P14672 1-509): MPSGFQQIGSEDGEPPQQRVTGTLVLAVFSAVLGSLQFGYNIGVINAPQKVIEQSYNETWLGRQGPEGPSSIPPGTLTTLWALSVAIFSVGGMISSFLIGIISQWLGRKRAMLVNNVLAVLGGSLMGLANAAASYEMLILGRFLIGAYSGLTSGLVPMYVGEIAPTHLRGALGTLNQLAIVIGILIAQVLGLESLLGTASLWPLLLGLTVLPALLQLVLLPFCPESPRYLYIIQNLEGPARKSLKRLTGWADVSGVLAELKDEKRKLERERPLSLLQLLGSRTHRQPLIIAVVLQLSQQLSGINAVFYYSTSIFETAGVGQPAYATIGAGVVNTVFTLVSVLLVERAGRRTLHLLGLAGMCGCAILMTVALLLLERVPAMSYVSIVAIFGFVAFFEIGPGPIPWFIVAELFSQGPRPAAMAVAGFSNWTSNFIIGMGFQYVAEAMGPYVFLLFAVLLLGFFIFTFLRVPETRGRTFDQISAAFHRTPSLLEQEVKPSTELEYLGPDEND
# Excerpt: as §1
# (§3) Adult female Xenopus laevis were obtained from Xenopus Express (Homosassa, Fla.) and housed at 17-19° C. on a twelve-hour light/dark cycle. […]
# as §2, with “Competitors, inhibitors, or insulin were added to the incubation as indicated. Uptake was terminated by removal of the radioactive solution and three 500 μl washes with ice-cold MBS containing 0.1 mM phloretin (Sigma).” left out
# GLUT10 A28T = biological target: T3, GLUT10 A28T (Homo sapiens, UniProt O95528, A287T); assay: 2-DOG uptake in Xenopus oocytes expressing GLUT10 A28T isoform; assay type: cell-based; conditions: pre-incubation with insulin
# T3 construct: A full-length GLUT10 cDNA was cloned into the expression vector pCMV-Tag4a (Stratagene); expressed in transfected cells; host or cells: Xenopus laevis oocytes injected with capped mRNA
# T3 sequence (O95528 1-541 A287T): B1 chain with A287T
# Excerpt: as §1, §3
# as §2, with “Competitors, inhibitors, or insulin were added to the incubation as indicated. Uptake was terminated by removal of the radioactive solution and three 500 μl washes with ice-cold MBS containing 0.1 mM phloretin (Sigma).” left out, “transformation. […]” for “transformation.”
# GLUT10 A206T = biological target: T4, GLUT10 A206T (Homo sapiens, UniProt O95528, A206T); assay: 2-DOG uptake in Xenopus oocytes expressing GLUT10 A206T isoform; assay type: cell-based; conditions: pre-incubation with insulin
# T4 construct: A full-length GLUT10 cDNA was cloned into the expression vector pCMV-Tag4a (Stratagene); expressed in transfected cells; host or cells: Xenopus laevis oocytes injected with capped mRNA
# T4 sequence (O95528 1-541 A206T): B1 chain with A206T
# Excerpt: as §1, §3
# as §2, with “Competitors, inhibitors, or insulin were added to the incubation as indicated. Uptake was terminated by removal of the radioactive solution and three 500 μl washes with ice-cold MBS containing 0.1 mM phloretin (Sigma).” left out, “transformation. […]” for “transformation.”
# [1] = substrate: O=CC[C@@H](O)[C@H](O)[C@H](O)CO; assay: cells, lysate or membranes; conditions: Eadie-Hofstee analysis, pH 7.5
# [2] = 250 μM [3H]2-DOG, 30 min at 22° C.
molecule,measurement,setting,value
O=C[C@H](O)[C@@H](O)[C@H](O)[C@H](O)CO [D-glucose],effect of competitors on [3H]2-DOG uptake,human GLUT10; [2],effectively competed
insulin,insulin stimulation of glucose transport,"human GLUT10; pre-incubation with insulin, oocytes injected with GLUT10 mRNA",approximately 2 fold
same,insulin stimulation of 2-DOG transport,"human GLUT10; wild type GLUT10, pre-incubation with 100 μM insulin for 30 min, 250 μM [3H]2-DOG",stimulated
same,insulin stimulation of 2-DOG transport,human GLUT4,stimulated
same,insulin stimulation of 2-DOG uptake activity,GLUT10 A28T,not stimulated
same,insulin stimulation of 2-DOG uptake activity,GLUT10 A206T,not stimulated
"O=CC[C@@H](O)[C@H](O)[C@H](O)CO [2-DOG, 2-deoxy-D-glucose]",2-DOG uptake over the water-injected controls,"human GLUT10; 25 μM 2-DOG, 30 min at 22° C., 3 days after injection of 30 ng GLUT10 RNA",5 fold
same,effect of competitors on [3H]2-DOG uptake,human GLUT10; [2],effectively competed
same,Vmax of 2-DOG uptake,"human GLUT10; GLUT10 RNA-injected oocytes, 30 min at 22° C., Eadie-Hofstee analysis",0.85 pmol oocyte^−1 30 min^−1
same,Km,"human GLUT10; read-out: apparent Km for 2-DOG transport, GLUT10 mRNA-injected oocytes, 30 min, Eadie-Hofstee analysis",~300 µM
O=C(CO)[C@@H](O)[C@H](O)[C@H](O)CO [fructose],effect of competitors on [3H]2-DOG uptake,human GLUT10; [2],did not inhibit
O=C[C@H](O)[C@@H](O)[C@@H](O)[C@H](O)CO [D-galactose],effect of competitors on [3H]2-DOG uptake,human GLUT10; [2],inhibited 2-DOG uptake but less effectively; also recorded: competed
O=C(CCc1ccc(O)cc1)c1c(O)cc(O)cc1O [phloretin],effect of phloretin on 2-DOG uptake,"human GLUT10; 100 μM phloretin, 25 μM [3H]2-DOG, 30 min at 22° C.",inhibited
B1,Km,"[1]; other: GLUT10 RNA (30 ng) injected oocytes, 30 min at 22° C., corrected for water-injected background",280 µM
same,Km,"[1]; other: GLUT10 mRNA-injected oocytes, 30 min, 22.0 °C",300 µM
